“Also recorded” adds a separate entry of the source.
Assays:
[1] = biological target: T1, MBP-PB1-ZZ WT (p62 residues 1–181) (Homo sapiens, UniProt Q13501); assay: FP binding assay, MBP-PB1-ZZ WT
T1 construct: The PB1-ZZ-domain of p62 (residues 1–181) WT and various mutants were expressed as MBP-fused forms; made in house; host or cells: Escherichia coli BL21(DE3)
Protocol: The PB1-ZZ-domain of p62 (residues 1–181) WT and various mutants were expressed as MBP-fused forms. […] The ZZ-domain (residues 122–181) WT and various mutants were expressed as GST-fused forms.
FITC-labeled R-BiP/GRP78 peptide and all mutant peptides were dissolved to 1 mM concentration in buffers (50 mM MES pH 6.0 [or 50 mM Tris pH 8.0], 100 mM NaCl, and 1 mM DTT) and sequentially diluted with binding buffer up to 100 nM in each 40 μL reaction well. Purified GST-ZZ, MBP-PB1-ZZ WT and the respective mutants were also serially diluted in binding buffer and mixed into each reaction well at a concentration ranging from 400 nM to 3 mM. […] A nonlinear graph of p62 construct concentration-dependent polarization was calculated and drawn using GraphPad Prism 7 software.

[2] = system: degradation of R-BiP protein and p62 in HeLa cells; assay: Cycloheximide-chase protein degradation assay; assay type: cell-based; settings: HA-p62 and Ub-R-BiP transfected, chloroquine 30 μM, 16 hr, 50 μg/ml cycloheximide 16 hr, immunoblotting
Protocol: HeLa cells were cultured in DMEM (HyClone) containing 10% FBS (HyClone) and 1% penicillin/streptomycin (HyClone). Cells were transiently transfected with plasmids using Lipofectamine 2000 (Invitrogen) for mammalian expression. For protein degradation analysis, HeLa cells at 80% confluence were transiently transfected with plasmids expressing HA-p62 (either WT or mutants) and Ub-R-BiP. For the blocking of protein synthesis, cells were treated with 50 μg/ml cycloheximide (Sigma-Aldrich) for […] prior to cell harvesting. Cultured cells were pelleted by centrifugation and pellets were resuspended in phosphate-buffered saline (PBS). A volume of 150 μl was then mixed with 150 μl of 5X SDS-PAGE loading buffer (125 mM Tris-HCl pH 6.8, 4% SDS, 10% 2-mercaptoethanol and 20% glycerol). Each sample was heated for 5 min and 0.1 mg of total protein was subjected to Western blotting. Following antibodies were used in this study: rabbit monoclonal anti-p62 (Cell Signaling Technology, 8025, 1:1000), rabbit polyclonal anti-R-BiP (Abfrontier, AR02-PA0001, 1:1000), mouse monoclonal anti-β-actin (Sigma-Aldrich, A5441, 1:20,000), rat monoclonal anti-HA (Roche, 1867431, 1:20,000), mouse monoclonal anti-His-HRP (Santa Cruz, sc-8036 HRP, 1:20,000) and mouse monoclonal anti-MBP-HRP (NEB, E8038S, 1:2000).
Supplementary Figure 7. Degradation assay of R-BiP and p62 protein […]

T1 sequence (Q13501 1-181): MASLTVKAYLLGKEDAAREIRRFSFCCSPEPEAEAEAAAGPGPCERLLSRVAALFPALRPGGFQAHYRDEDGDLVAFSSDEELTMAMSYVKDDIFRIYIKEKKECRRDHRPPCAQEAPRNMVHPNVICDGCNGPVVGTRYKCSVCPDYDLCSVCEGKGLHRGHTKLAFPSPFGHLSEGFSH

Binding (dissociation constant) ([1]; pH 4.5) | Binding (dissociation constant) ([1]; pH 5.0) | Binding (dissociation constant) ([1]; pH 8.5) | Binding (dissociation constant) ([1]; pH 9.0) | Structure (SMILES) | Degradation of R-BiP protein and p62 [2]
not detected | not detected | not detected | not detected | N=C(N)NCCC[C@H](N)C(=O)N[C@@H](CCC(=O)O)C(=O)N[C@@H](CCC(=O)O)C(=O)N[C@@H](CCC(=O)O)C(=O)N[C@@H](CC(=O)O)C(=O)N[C@@H](CCCCNC(=S)Nc1ccc2c(c1)C(=O)OC21c2ccc(O)cc2Oc2cc(O)ccc21)C(=O)O [R-BiP peptide] | 
 |  |  |  | CCN(CC)CCCC(C)Nc1ccnc2cc(Cl)ccc12 (centres unmarked) [chloroquine] | blocked; also recorded: not degraded
